Measured values taken from article PMC5104425, “A Novel Selective Inhibitor of Delta-5 Desaturase Lowers Insulin Resistance and Reduces Body Weight in Diet-Induced Obese C57BL/6J Mice” (PLoS ONE, 2016).
Where a name gives a salt, the structure may show the parent alone.

Columns and labels:
Format in all cases: in vivo, C57BL/6J mice
[1] = test system: D5D; experiment: Blood fatty acids (PD markers AA, DGLA, EPA, DHA) after 6-week treatment in DIO mice; settings: sibutramine 30 mg/kg, 6 weeks
Protocol: Fatty acids were extracted from blood and tissues by adding hexane-isopropanol-butylated hydroxytoluene (60:40:0.01, v/v/w). Samples were vortexed for 30 min. The hexane phase was removed and evaporated to dryness under nitrogen stream and vacuum. Dried samples were dissolved in methanol and analyzed by HPLC.
(§1) Mice were fed a high-fat diet (HFD) that has 60% kcal from fat and contains 0.09% (w/w) AA (D12492; Research diets, Inc., see S1 Table for fatty acid profile) from 5 weeks of age, and they were divided into 5 groups (7 animals per group) at 11 weeks of age based on BW and daily food intake. In this experiment, 30 mg/kg sibutramine, a […], was used as a positive control for anti-obesity effects. Mice were orally administered compound-326 at doses of 0.1, 1, and 10 mg/kg, sibutramine at a dose of 30 mg/kg, or vehicle for 6 weeks. After 6 weeks, blood concentrations of DGLA and AA under non-fasting condition were evaluated as pharmacodynamics (PD) markers, and oral glucose tolerance test (OGTT) was performed.

[2] = test system: DIO mice; experiment: Anti-obesity effects in DIO mice, 6-week treatment (HFD D12492): BW, calorie intake, observations; settings: sibutramine 30 mg/kg p.o.
Protocol: In this report, we performed 3 independent studies in DIO mice to characterize anti-obesity effects of our D5D specific inhibitor. Male C57BL/6J mice were obtained from Charles River Laboratories (Yokohama, Japan) or CLEA Japan (Osaka, Japan). The mice were fed a laboratory chow and water ad libitum and housed in a 12-h light/dark cycle. Compound or vehicle was administered once daily between 15: 00–19:00 by oral gavage. Body weight (BW) and food intake were monitored throughout the experiment.
as §1

[3] = test system: DIO mice; experiment: Oral glucose tolerance test and HOMA-IR after 6-week treatment in DIO mice; settings: sibutramine 30 mg/kg, 6 weeks
Protocol: as §1
On the last day of the experiment, mice were given an oral glucose load (2 g/kg) after overnight fasting. Blood samples were collected at specified time points of 0 (pre-glucose/fasting glucose levels), 10, 30, 60, and 120 min post glucose load for the determination of plasma glucose as well as insulin levels. Plasma glucose was enzymatically measured with auto-analyzer 7180 (Hitachi High-Technologies Corporation, Tokyo, Japan). Plasma insulin was measured with mouse insulin ELISA kit (Shibayagi, Gunma, Japan). The total area under the glucose curve was determined from time 0 to 120 min (AUC0–120 min) after glucose administration. Homeostasis model assessment-insulin […] (HOMA-IR) was calculated using the formula: [(fasted PG: mg/dL)×(fasted insulin; μU/mL)[…]/405] [28].

## CC(C)CC(N(C)C)C1(c2ccc(Cl)cc2)CCC1 (stereo not drawn) [sibutramine, Sibutramine hydrochloride monohydrate, reference compound]
[1]
  blood AA level: slightly but significantly decreased
  blood AA to DGLA ratio: slightly but significantly decreased
  blood DGLA level: slightly but significantly decreased
[2]; 6 weeks, BW then increased in line with food intake
  BW: potent BW loss for a week
[2]; from day 1, followed by a rebound
  food intake: transient and potent decrease in food intake
[3]
  HOMA-IR: significantly improved
